From patent publication US8501754B2, “Quinazolinamide derivatives” (MERCK PATENT GmbH, priority 2007, dated 2013)

Molecular target: Recombinant human HSP90a (Homo sapiens, UniProt P07900)
Assay: radioligand filter binding test ([3H]17AAG competition) for HSP90 inhibition
Settings: competition with [3H]17AAG 0.08 μM, HSP90 1.5 μg/assay, 22° C., 30 min
Text: Test Method for the Measurement of HSP90 Inhibitors
The binding of geldanamycin or 17-allylamino-17-demethoxygeldanamycin (17AAG) to HSP90 and competitive inhibition thereof can be utilized in order to determine the inhibitory activity of the compounds according to the invention (Carreras et al. 2003, Chiosis et al. 2002).
In the specific case, a radioligand filter binding test is used. The radioligand used here is tritium-labelled 17-allylaminogeldanamycin, [3H]17AAG. This filter binding test allows a targeted search for inhibitors which interfere with the ATP binding site.
Recombinant human HSP90a (E. coli expressed, 95% purity);
[3H]17AAG (17-allylaminogeldanamycin, [allylamino-2,3-^3H. Specific activity: 1.11×10^12 Bq/mmol (Moravek, MT-1717);
HEPES filter buffer (50 mM HEPES, pH 7.0, 5 mM MgCl2, BSA 0.01%) Multiscreen FB (1 μm) filter plate (Millipore, MAFBNOB 50).
The 96-well microtitre filter plates are firstly irrigated and coated with 0.1% of polyethylenimine.
The test is carried out under the following conditions:
Reaction temperature 22° C.
Reaction time: 30 min., shaking at 800 rpm
50 mM HEPES HCl, pH 7.0, 5 mM MgCl2, 0.01% (w/v) of BSA
At the end of the reaction, the supernatant in the filter plate is removed by suction with the aid of a vacuum manifold (Multiscreen Separation System, Millipore), and the filter is washed twice.
The filter plates are then measured in a beta counter (Microbeta, Wallac) with scintillator (Microscint 20, Packard).
“% of control” is determined from the “counts per minutes” values, and the IC-50 value of a compound is calculated therefrom.

Nc1nc(C(=O)N2Cc3ccccc3C2)c2cc(N3CCN(C(=O)OCc4ccccc4)CC3)ccc2n1 [Compound A939]
IC50: 10 to 1000 nM

Nc1nc(C(=O)N2Cc3ccccc3C2)c2cc(-c3ccccc3CN3CCOCC3)ccc2n1 [Compound A974]
IC50: 10 to 1000 nM

CN1CCN(Cc2cc(O)ccc2-c2ccc3nc(N)nc(C(=O)N4Cc5ccccc5C4)c3c2)CC1 [Compound A1002]
IC50: 10 to 1000 nM

CCc1ccc2nc(N)nc(C(=O)N3Cc4ccc(Br)cc4C3)c2c1 [Compound A96, 2-Amino-6-ethyl-4-(5-bromo-1,3-dihydroisoindol-2-ylcarbonyl)quinazoline]
IC50: 10 to 1000 nM

Nc1nc(C(=O)N2Cc3ccccc3C2)c2cc(Br)ccc2n1 [Compound A125, 2-Amino-6-bromo-4-(1,3-dihydroisoindol-2-ylcarbonyl)quinazoline]
IC50: 1000 to 10000 nM

CCc1ccccc1-c1ccc2nc(N)nc(C(=O)N3Cc4ccccc4C3)c2c1 [Compound A924, 2-Amino-6-(2-ethylphenyl)-4-(1,3-dihydroisoindol-2-ylcarbonyl)quinazoline]
IC50: 10 to 1000 nM

Nc1nc(C(=O)N2Cc3ccccc3C2)c2cc(-c3ccc(O)cc3CO)ccc2n1 [Compound A1006]
IC50: 10 to 1000 nM

N#CCc1ccccc1-c1ccc2nc(N)nc(C(=O)N3Cc4ccccc4C3)c2c1 [Compound A344a]
IC50: 10 to 1000 nM

NC(=O)c1ccccc1-c1ccc2nc(N)nc(C(=O)N3Cc4ccccc4C3)c2c1 [Compound A310]
IC50: 10 to 1000 nM

Nc1nc(C(=O)N2Cc3ccccc3C2)c2cc(-c3ccncc3)ccc2n1 [Compound A923, 2-Amino-6-(pyridin-4-yl)-4-(1,3-dihydroisoindol-2-ylcarbonyl)quinazoline]
IC50: 1000 to 10000 nM

CN(C)CCN(C)S(=O)(=O)c1ccccc1-c1ccc2nc(N)nc(C(=O)N3Cc4ccccc4C3)c2c1 [Compound A982]
IC50: 10 to 1000 nM

Nc1nc(C(=O)Nc2ccccc2-c2ccccc2)c2ccccc2n1 [Compound A46]
IC50: 1000 to 10000 nM

NCc1ccccc1-c1ccc2nc(N)nc(C(=O)N3Cc4ccccc4C3)c2c1 [Compound A936]
IC50: 1000 to 10000 nM

CCN(CC)C(=O)c1cccc(-c2ccc3nc(N)nc(C(=O)N4Cc5ccccc5C4)c3c2)c1 [Compound A931]
IC50: 10 to 1000 nM

N#Cc1ccccc1-c1ccc2nc(N)nc(C(=O)N3Cc4ccccc4C3)c2c1 [Compound A328]
IC50: 10 to 1000 nM

CN(C)CCOc1ccccc1-c1ccc2nc(N)nc(C(=O)N3Cc4ccccc4C3)c2c1 [Compound A986, {2-amino-6-[2-(2-dimethylaminoethoxy)phenyl]quinazolin-4-yl}-(1,3-dihydroisoindol-2-yl)methanone]
IC50: 10 to 1000 nM

CN(C)CCNCc1ccccc1-c1ccc2nc(N)nc(C(=O)N3Cc4ccccc4C3)c2c1 [Compound A973]
IC50: 10 to 1000 nM

Nc1nc(C(=O)N2Cc3ccccc3C2)c2cc(-c3ccccc3C(F)(F)F)ccc2n1 [Compound A262]
IC50: 10 to 1000 nM

Nc1nc(C(=O)Nc2cccc3cccnc23)c2ccccc2n1 [Compound A48]
IC50: 1000 to 10000 nM

Nc1nc(C(=O)Nc2cccc3c2CCCC3)c2ccccc2n1 [Compound A50]
IC50: 1000 to 10000 nM

Nc1nc(C(=O)N2Cc3ccccc3C2)c2cc(-c3ccccc3C(=O)N3CCNCC3)ccc2n1 [Compound A1007]
IC50: 10 to 1000 nM
